Results: patent US3951955A, “Penicillins substituted with heterocyclic groups” (Sumitomo Chemical Company, Limited, priority 1970, dated 1976)
Values after ≈ are worked out from the molar mass of the structure shown. Structures can show the parent of a compound that is named as a salt.

Tests used:
Assay in all cases: minimal inhibitory concentration, agar dilution method (in vitro)
Type in all cases: cell-based
Escherichia coli NIHJ = test system: Escherichia coli NIHJ
From the text: (§1) When determined according to the agar dilution method, the penicillins [I] afford the minimal inhibitory concentrations as shown in the following Table 1: […]

Proteus miravilis 2425 = test system: Proteus miravilis 2425
From the text: as §1

[1] = test system: Pseudomonas aeruginosa 104
From the text: as §1

[2] = test system: Staphylococcus aureus 209P
From the text: as §1

[3] = test system: Klebsiella pneumoniae 602
From the text: as §1

Row | SMILES | MIC (Escherichia coli NIHJ) | MIC (Proteus miravilis 2425) | MIC [1] | MIC [2] | MIC [3]
1 | Cc1ccc2c(O)c(C(=O)N[C@@H](C(=O)N[C@@H]3C(=O)N4[C@@H]3SC(C)(C)[C@@H]4C(=O)O)c3ccccc3)cnc2n1 [Example 4, D-(-)-α-(7-methyl-4-hydroxy-1,8-naphthyridine-3-carbonamido)-benzylpenicillin potassium salt] | 12.5 µg/mL | 6.25 µg/mL | 6.25 µg/mL | 0.78 µg/mL | 
2 | CCOC(=O)Oc1c(C(=O)N[C@@H](C(=O)N[C@@H]2C(=O)N3[C@@H]2SC(C)(C)[C@@H]3C(=O)O)c2ccccc2)cnc2nc(C)ccc12 [Example 5, D-(-)-α-(7-methyl-4-ethoxycarbonyloxy-1,8-naphthyridine-3-carbonamido)-benzylpenicillin] | 12.5 µg/mL (≈ 20.6 µM) | 6.25 µg/mL (≈ 10.3 µM) | 12.5 µg/mL (≈ 20.6 µM) | 0.78 µg/mL (≈ 1.28 µM) | 
3 | Cc1nc2cc3c(cc2c(O)c1C(=O)N[C@@H](C(=O)N[C@@H]1C(=O)N2[C@@H]1SC(C)(C)[C@@H]2C(=O)O)c1ccccc1)OCO3 [Example 7, D-(-)-α-(2-methyl-6,7-methylenedioxy-4-hydroxyquinoline-3-carbonamido)-benzylpenicillin potassium salt] | 12.5 µg/mL | 6.25 µg/mL | 12.5 µg/mL | 0.2 µg/mL | 
4 | CCSc1c(C(=O)NC(C(=O)N[C@@H]2C(=O)N3[C@@H]2SC(C)(C)[C@@H]3C(=O)O)c2ccccc2)cnc2cc3c(cc12)OCO3 (some centres unmarked) [Example 8] | 12.5 µg/mL (≈ 20.5 µM) | 12.5 µg/mL (≈ 20.5 µM) | 25 µg/mL (≈ 41.1 µM) | 0.2 µg/mL (≈ 0.329 µM) | 
5 | COc1c(C(=O)NC(C(=O)N[C@@H]2C(=O)N3[C@@H]2SC(C)(C)[C@@H]3C(=O)O)c2ccccc2)cnc2cc3c(cc12)OCO3 (some centres unmarked) [Example 10] | 12.5 µg/mL (≈ 21.6 µM) | 25 µg/mL (≈ 43.2 µM) | 25 µg/mL (≈ 43.2 µM) | 0.2 µg/mL (≈ 0.346 µM) | 
6 | CCOc1c(C(=O)NC(C(=O)N[C@@H]2C(=O)N3[C@@H]2SC(C)(C)[C@@H]3C(=O)O)c2ccccc2)cnc2ccccc12 (some centres unmarked) [Example 13] | 12.5 µg/mL (≈ 22.8 µM) | 25 µg/mL (≈ 45.6 µM) | 50 µg/mL (≈ 91.1 µM) | 0.2 µg/mL (≈ 0.365 µM) | 
7 | COc1c(C(=O)NC(C(=O)N[C@@H]2C(=O)N3[C@@H]2SC(C)(C)[C@@H]3C(=O)O)c2ccccc2)cnc2ccccc12 (some centres unmarked) [Example 14] | 25 µg/mL (≈ 46.8 µM) | 12.5 µg/mL (≈ 23.4 µM) | 12.5 µg/mL (≈ 23.4 µM) | 0.2 µg/mL (≈ 0.374 µM) | 25 µg/mL (≈ 46.8 µM)
8 | CC1(C)S[C@@H]2[C@H](NC(=O)C(NC(=O)c3cnc4cc(C(F)(F)F)ccc4c3O)c3ccccc3)C(=O)N2[C@H]1C(=O)O (some centres unmarked) [Example 20] | 12.5 µg/mL (≈ 21.2 µM) | 3.13 µg/mL (≈ 5.32 µM) | 6.25 µg/mL (≈ 10.6 µM) | 0.39 µg/mL (≈ 0.663 µM) | 0.39 µg/mL (≈ 0.663 µM)
9 | CC1(C)S[C@@H]2[C@H](NC(=O)C(NC(=O)c3cnc4cc([N+](=O)[O-])ccc4c3O)c3ccccc3)C(=O)N2[C@H]1C(=O)O (some centres unmarked) [Example 21] | 12.5 µg/mL (≈ 22.1 µM) | 6.25 µg/mL (≈ 11.1 µM) | 12.5 µg/mL (≈ 22.1 µM) | 0.39 µg/mL (≈ 0.69 µM) | 0.78 µg/mL (≈ 1.38 µM)
10 | CC1(C)S[C@@H]2[C@H](NC(=O)C(NC(=O)c3cnc4cc(S(C)(=O)=O)ccc4c3O)c3ccccc3)C(=O)N2[C@H]1C(=O)O (some centres unmarked) [Example 22] | 12.5 µg/mL (≈ 20.9 µM) | 3.13 µg/mL (≈ 5.23 µM) | 6.25 µg/mL (≈ 10.4 µM) | 0.39 µg/mL (≈ 0.651 µM) | 0.39 µg/mL (≈ 0.651 µM)
11 | CC(=O)Nc1ccc2ncc(C(=O)NC(C(=O)N[C@@H]3C(=O)N4[C@@H]3SC(C)(C)[C@@H]4C(=O)O)c3ccccc3)c(O)c2c1 (some centres unmarked) [Example 23] | 12.5 µg/mL (≈ 21.6 µM) | 3.13 µg/mL (≈ 5.42 µM) | 12.5 µg/mL (≈ 21.6 µM) | 0.78 µg/mL (≈ 1.35 µM) | 3.13 µg/mL (≈ 5.42 µM)
12 | CCOC(=O)Oc1c(C(=O)NC(C(=O)N[C@@H]2C(=O)N3[C@@H]2SC(C)(C)[C@@H]3C(=O)O)c2ccccc2)cnc2ccc(NC(=O)OCc3ccccc3)cc12 (some centres unmarked) [Example 24] | 12.5 µg/mL (≈ 16.9 µM) | 12.5 µg/mL (≈ 16.9 µM) | 12.5 µg/mL (≈ 16.9 µM) | 0.39 µg/mL (≈ 0.526 µM) | 1.56 µg/mL (≈ 2.1 µM)
13 | CC1(C)S[C@@H]2[C@H](NC(=O)C(NC(=O)c3cnc4cc(C(F)(F)F)ccc4c3O)c3cccs3)C(=O)N2[C@H]1C(=O)O (some centres unmarked) [Example 25] | 12.5 µg/mL (≈ 21 µM) | 3.16 µg/mL (≈ 5.31 µM) | 6.25 µg/mL (≈ 10.5 µM) | 0.39 µg/mL (≈ 0.656 µM) | 

These reach a lower MIC (Escherichia coli NIHJ). Values come first.

Row | MIC (Escherichia coli NIHJ) | MIC (Proteus miravilis 2425) | MIC [1] | MIC [2] | MIC [3] | SMILES
14 | 6.25 µg/mL (≈ 10.5 µM) | 1.56 µg/mL (≈ 2.63 µM) | 3.13 µg/mL (≈ 5.28 µM) | 0.2 µg/mL (≈ 0.337 µM) |  | CCOC(=O)Oc1c(C(=O)N[C@@H](C(=O)N[C@@H]2C(=O)N3[C@@H]2SC(C)(C)[C@@H]3C(=O)O)c2ccccc2)cnc2ccccc12 [Example 1, D-(-)-α-(4-ethoxycarbonyloxyquinoline-3-carbonamido)-benzylpenicillin]
15 | 6.25 µg/mL (≈ 12 µM) | 3.13 µg/mL (≈ 6.01 µM) | 6.25 µg/mL (≈ 12 µM) | 0.2 µg/mL (≈ 0.384 µM) | 1.56 µg/mL (≈ 3 µM) | CC1(C)S[C@@H]2[C@H](NC(=O)[C@H](NC(=O)c3cnc4ccccc4c3O)c3ccccc3)C(=O)N2[C@H]1C(=O)O [Example 3, D-(-)-α-(4-hydroxyquinoline-3-carbonamido)-benzylpenicillin]
16 | 6.25 µg/mL (≈ 10.3 µM) | 1.56 µg/mL (≈ 2.58 µM) | 3.13 µg/mL (≈ 5.18 µM) | 0.1 µg/mL (≈ 0.165 µM) |  | CC(C)(C)C(=O)Oc1c(C(=O)N[C@@H](C(=O)N[C@@H]2C(=O)N3[C@@H]2SC(C)(C)[C@@H]3C(=O)O)c2ccccc2)cnc2ccccc12 [Example 6, D-(-)-α-(4-pivaloyloxyquinoline-3-carbonamido)-benzylpenicillin]
17 | 6.25 µg/mL (≈ 10.8 µM) | 3.13 µg/mL (≈ 5.39 µM) | 3.13 µg/mL (≈ 5.39 µM) | 0.2 µg/mL (≈ 0.344 µM) |  | CC1(C)S[C@@H]2[C@H](NC(=O)C(NC(=O)c3cnc4cc5c(cc4c3S)OCO5)c3ccccc3)C(=O)N2[C@H]1C(=O)O (some centres unmarked) [Example 9]
18 | 6.25 µg/mL (≈ 11 µM) | 3.13 µg/mL (≈ 5.51 µM) | 3.13 µg/mL (≈ 5.51 µM) | 0.1 µg/mL (≈ 0.176 µM) |  | CSc1ccc2ncc(C(=O)NC(C(=O)N[C@@H]3C(=O)N4[C@@H]3SC(C)(C)[C@@H]4C(=O)O)c3ccccc3)c(O)c2n1 (some centres unmarked) [Example 11]
19 | 6.25 µg/mL (≈ 11.1 µM) | 3.13 µg/mL (≈ 5.54 µM) | 3.13 µg/mL (≈ 5.54 µM) | 0.1 µg/mL (≈ 0.177 µM) |  | CN(C)c1ccc2ncc(C(=O)NC(C(=O)N[C@@H]3C(=O)N4[C@@H]3SC(C)(C)[C@@H]4C(=O)O)c3ccccc3)c(O)c2n1 (some centres unmarked) [Example 12]
20 | 6.25 µg/mL (≈ 9.97 µM) | 3.13 µg/mL (≈ 4.99 µM) | 3.13 µg/mL (≈ 4.99 µM) | 0.2 µg/mL (≈ 0.319 µM) | 0.39 µg/mL (≈ 0.622 µM) | CCOC(=O)Oc1c(C(=O)NC(C(=O)N[C@@H]2C(=O)N3[C@@H]2SC(C)(C)[C@@H]3C(=O)O)c2ccccc2)cnc2cc(Cl)ccc12 (some centres unmarked) [Example 16]
21 | 6.25 µg/mL (≈ 11.4 µM) | 1.56 µg/mL (≈ 2.83 µM) | 6.25 µg/mL (≈ 11.4 µM) | 0.39 µg/mL (≈ 0.708 µM) | 0.78 µg/mL (≈ 1.42 µM) | COc1ccc2c(O)c(C(=O)NC(C(=O)N[C@@H]3C(=O)N4[C@@H]3SC(C)(C)[C@@H]4C(=O)O)c3ccccc3)cnc2c1 (some centres unmarked) [Example 18]
22 | 6.25 µg/mL (≈ 11.4 µM) | 1.56 µg/mL (≈ 2.83 µM) | 6.25 µg/mL (≈ 11.4 µM) | 0.39 µg/mL (≈ 0.708 µM) | 0.78 µg/mL (≈ 1.42 µM) | COc1ccc2ncc(C(=O)NC(C(=O)N[C@@H]3C(=O)N4[C@@H]3SC(C)(C)[C@@H]4C(=O)O)c3ccccc3)c(O)c2c1 (some centres unmarked) [Example 19]
23 | 3.13 µg/mL (≈ 5.64 µM) | 1.56 µg/mL (≈ 2.81 µM) | 3.13 µg/mL (≈ 5.64 µM) | 0.2 µg/mL (≈ 0.36 µM) | 0.39 µg/mL (≈ 0.703 µM) | CC1(C)S[C@@H]2[C@H](NC(=O)C(NC(=O)c3cnc4cc(Cl)ccc4c3O)c3ccccc3)C(=O)N2[C@H]1C(=O)O (some centres unmarked) [Example 15]
24 | 3.13 µg/mL (≈ 5.03 µM) | 1.56 µg/mL (≈ 2.51 µM) | 3.13 µg/mL (≈ 5.03 µM) | 0.2 µg/mL (≈ 0.321 µM) | 0.39 µg/mL (≈ 0.626 µM) | CCOC(=O)Oc1c(C(=O)NC(C(=O)N[C@@H]2C(=O)N3[C@@H]2SC(C)(C)[C@@H]3C(=O)O)c2ccccc2)cnc2cc(OC)ccc12 (some centres unmarked) [Example 17]
25 | 3.13 µg/mL (≈ 5.37 µM) | 3.13 µg/mL (≈ 5.37 µM) | 3.13 µg/mL (≈ 5.37 µM) | 0.78 µg/mL (≈ 1.34 µM) | 3.13 µg/mL (≈ 5.37 µM) | COc1nc(OC)c2c(O)c(C(=O)NC(C(=O)N[C@@H]3C(=O)N4[C@@H]3SC(C)(C)[C@@H]4C(=O)O)c3ccccc3)cnc2n1 (some centres unmarked) [Example 26]
